In PubChem BioAssay AID248 (DTP/NCI, 2004):
Values joined by “and” are separate entries in the source; they are usually repeats but may differ in a detail not shown here. Equal entries are not always repeated. Toxic doses and inconclusive results are not listed. Rule as the data show it: active = T/C of 150% or more; inactive = T/C below 125%.

Test system: L1210 leukemia ip in BDF1 mice, survival T/C
Assay: NCI In Vivo Anticancer Drug Screen. Data for tumor model L1210 Leukemia (intraperitoneal) in B6D2F1 (BDF1) mice
Details: endpoint: mean survival time, higher = longer survival
Procedure, shortened: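 Survival endpoint. Drug-treated group vs vehicle group, expressed as T divided by C. Tumor passaged by transplantation.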

[1] = dose: 100.0 mg/kg/injection, schedule: Q01DX009 (ip), vehicle: saline with Tween-80
[2] = dose: 200.0 mg/kg/injection, schedule: Q01DX009 (ip), vehicle: saline with Tween-80
[3] = dose: 400.0 mg/kg/injection, schedule: Q01DX009 (ip), vehicle: saline with Tween-80
[4] = dose: 100.0 mg/kg/injection, schedule: Q04DX003 (ip), vehicle: saline with Tween-80
[5] = dose: 200.0 mg/kg/injection, schedule: Q04DX003 (ip), vehicle: saline with Tween-80
[6] = dose: 200.0 mg/kg/injection, schedule: Q01DX001 (ip), vehicle: other
[7] = dose: 100.0 mg/kg/injection, schedule: Q01DX009 (ip), vehicle: Klucel (hydroxypropylcellulose) (HPC)
[8] = dose: 100.0 mg/kg/injection, schedule: Q04DX003 (ip), vehicle: Klucel (hydroxypropylcellulose) (HPC)
[9] = dose: 200.0 mg/kg/injection, schedule: Q01DX009 (ip), vehicle: Klucel (hydroxypropylcellulose) (HPC)
[10] = dose: 200.0 mg/kg/injection, schedule: Q04DX003 (ip), vehicle: Klucel (hydroxypropylcellulose) (HPC)
[11] = dose: 400.0 mg/kg/injection, schedule: Q01DX009 (ip), vehicle: Klucel (hydroxypropylcellulose) (HPC)
[12] = dose: 400.0 mg/kg/injection, schedule: Q04DX003 (ip), vehicle: Klucel (hydroxypropylcellulose) (HPC)
[13] = dose: 100.0 mg/kg/injection, schedule: Q04DX003 (ip), vehicle: saline
[14] = dose: 200.0 mg/kg/injection, schedule: Q04DX003 (ip), vehicle: saline
[15] = dose: 50.0 mg/kg/injection, schedule: Q01DX009 (ip), vehicle: Klucel (hydroxypropylcellulose) (HPC)
[16] = dose: 50.0 mg/kg/injection, schedule: Q01DX009 (ip), vehicle: saline with Tween-80

Measured: T/C

OCCNCc1ccccc1
inactive: [1] 93 % of control | dose: 100.0 mg/kg/injection, schedule: Q01DX009 (ip), vehicle: water 95 % of control | dose: 100.0 mg/kg/injection, schedule: Q04DX003 (ip), vehicle: water 104 % of control | [2] 102 % of control | dose: 200.0 mg/kg/injection, schedule: Q01DX009 (ip), vehicle: water 103 % of control | dose: 200.0 mg/kg/injection, schedule: Q04DX003 (ip), vehicle: water 102 % of control | [3] 86 % of control | dose: 400.0 mg/kg/injection, schedule: Q01DX009 (ip), vehicle: water 105 % of control | dose: 400.0 mg/kg/injection, schedule: Q04DX003 (ip), vehicle: water 102 % of control

O=c1oc(/C=C/c2ccccc2)nc2cc(Cl)ccc12
inactive: [1] 103 % of control | [2] 101 % of control | [3] 96 % of control

CC1C(C(=O)c2ccc(-c3ccccc3)cc2)N1C1CCCCC1 (stereo unspecified)
inactive: [4] 93 % of control | [5] 86 % of control

CCC(C)COC(=O)c1ccccc1-c1ccccc1C(=O)OCC(C)CC (stereo unspecified)
inactive: dose: 100.0 mg/kg/injection, schedule: Q01DX001 (ip), vehicle: other 96 % of control | [6] 98 % of control | dose: 400.0 mg/kg/injection, schedule: Q01DX001 (ip), vehicle: other 96 % of control

CC(=O)Nc1ccc(OC(C)=O)cc1
inactive: [4] 106 % of control | [5] 106 % of control | dose: 400.0 mg/kg/injection, schedule: Q04DX003 (ip), vehicle: saline with Tween-80 116 % of control

O=C1OCCN1C(=O)c1ccc([N+](=O)[O-])cc1
inactive: dose: 100.0 mg/kg/injection, schedule: Q01DX001 (ip), vehicle: Klucel (hydroxypropylcellulose) (HPC) 97 % of control | [7] 89 % of control | [8] 97 % of control | dose: 200.0 mg/kg/injection, schedule: Q01DX001 (ip), vehicle: Klucel (hydroxypropylcellulose) (HPC) 94 % of control | [9] 94 % of control | [10] 98 % of control | dose: 400.0 mg/kg/injection, schedule: Q01DX001 (ip), vehicle: Klucel (hydroxypropylcellulose) (HPC) 97 % of control | [11] 88 % of control | [12] 98 % of control

CCOC(=O)c1ccc(NCc2cccc([N+](=O)[O-])c2)cc1
inactive: dose: 100.0 mg/kg/injection, schedule: Q01DX001 (ip), vehicle: saline with Tween-80 103 % of control | dose: 200.0 mg/kg/injection, schedule: Q01DX001 (ip), vehicle: saline with Tween-80 90 % of control | dose: 400.0 mg/kg/injection, schedule: Q01DX001 (ip), vehicle: saline with Tween-80 88 % of control

CCCCCCCCC(=O)NCCCOC
inactive: [7] 108 % of control | [8] 96 % of control | [9] 111 % of control | [10] 91 % of control | [11] 97 % of control | [12] 91 % of control

O=C1N/C(=N\OCc2ccccc2)CC(NOCc2ccccc2)N1C1OC(CO)C(O)C1O (stereo unspecified)
inactive: [13] 92 % of control | [14] 92 % of control

CC(=O)C1=CN(c2ccccc2)COC1C (stereo unspecified)
inactive: [15] 107 % of control | [7] 91 % of control | [9] 100 % of control

Nc1ccc(O)c2ncccc12
inactive: dose: 6.25 mg/kg/injection, schedule: Q01DX009 (ip), vehicle: saline 95 % of control | dose: 12.5 mg/kg/injection, schedule: Q01DX009 (ip), vehicle: saline 92 % of control | dose: 50.0 mg/kg/injection, schedule: Q01DX001 (ip), vehicle: saline 98 % of control

Cc1ccc(N2C(=O)CC(N3CCCCC3)C2=O)cc1 (stereo unspecified)
inactive: [7] 102 % of control | [9] 96 % of control | [11] 91 % of control

CC[C@]1(O)C[C@H](OC2CC(N(C)C)C(OC3CC(O)C(O)C(C)O3)C(C)O2)c2c(cc3c(c2O)C(=O)c2c(O)ccc(O)c2C3=O)[C@H]1C(=O)OC (stereo partly specified)
inactive: dose: 0.2 mg/kg/injection, schedule: Q04DX002 (ip), vehicle: Klucel (hydroxypropylcellulose) (HPC) 104 % of control | dose: 0.4 mg/kg/injection, schedule: Q01DX001 (ip), vehicle: Klucel (hydroxypropylcellulose) (HPC) 108 % of control | dose: 0.4 mg/kg/injection, schedule: Q04DX002 (ip), vehicle: Klucel (hydroxypropylcellulose) (HPC) 114 % of control | dose: 0.8 mg/kg/injection, schedule: Q01DX001 (ip), vehicle: Klucel (hydroxypropylcellulose) (HPC) 105 % of control | dose: 0.8 mg/kg/injection, schedule: Q04DX002 (ip), vehicle: Klucel (hydroxypropylcellulose) (HPC) 107 % of control | dose: 1.6 mg/kg/injection, schedule: Q01DX001 (ip), vehicle: Klucel (hydroxypropylcellulose) (HPC) 111 % of control | dose: 1.6 mg/kg/injection, schedule: Q04DX002 (ip), vehicle: Klucel (hydroxypropylcellulose) (HPC) 107 % of control | dose: 3.2 mg/kg/injection, schedule: Q01DX001 (ip), vehicle: Klucel (hydroxypropylcellulose) (HPC) 116 % of control | dose: 6.4 mg/kg/injection, schedule: Q01DX001 (ip), vehicle: Klucel (hydroxypropylcellulose) (HPC) 120 % of control

O=C(Nc1ccccc1Cl)NC1CCCCC1
inactive: [7] 100 % of control | dose: 100.0 mg/kg/injection, schedule: Q04DX002 (ip), vehicle: Klucel (hydroxypropylcellulose) (HPC) 95 % of control | [9] 97 % of control | dose: 200.0 mg/kg/injection, schedule: Q04DX002 (ip), vehicle: Klucel (hydroxypropylcellulose) (HPC) 100 % of control | [11] 91 % of control | dose: 400.0 mg/kg/injection, schedule: Q04DX002 (ip), vehicle: Klucel (hydroxypropylcellulose) (HPC) 95 % of control

COc1ccccc1CC=O
inactive: dose: 100.0 mg/kg/injection, schedule: Q01DX001 (ip), vehicle: saline 102 % of control | dose: 200.0 mg/kg/injection, schedule: Q01DX001 (ip), vehicle: saline 103 % of control | dose: 400.0 mg/kg/injection, schedule: Q01DX001 (ip), vehicle: saline 97 % of control

O=C(Nc1cccc(Cl)c1)Oc1c(Cl)cc(S(=O)(=O)F)cc1Cl
inactive: dose: 25.0 mg/kg/injection, schedule: Q01DX009 (ip), vehicle: saline with Tween-80 97 % of control | dose: 25.0 mg/kg/injection, schedule: Q04DX002 (ip), vehicle: saline with Tween-80 101 % of control | [16] 93 % of control | dose: 50.0 mg/kg/injection, schedule: Q04DX002 (ip), vehicle: saline with Tween-80 93 % of control | [1] 100 % of control | dose: 100.0 mg/kg/injection, schedule: Q04DX002 (ip), vehicle: saline with Tween-80 96 % of control and 90 % of control

C/C=C/[N+]([O-])=NC(C)CCCCCC (stereo unspecified)
inactive: dose: 100.0 mg/kg/injection, schedule: Q04DX002 (ip), vehicle: saline 105 % of control | dose: 200.0 mg/kg/injection, schedule: Q04DX002 (ip), vehicle: saline 97 % of control | dose: 400.0 mg/kg/injection, schedule: Q04DX002 (ip), vehicle: saline 94 % of control

CCOC(=O)c1cnc2c(cnn2CC)c1NCC(C)C
inactive: [15] 100 % of control | [7] 100 % of control | [9] 103 % of control

CCCCCC/C=N/NC(=O)c1ccc[n+](C)c1
inactive: [16] 93 % of control | [1] 100 % of control | [2] 100 % of control

c1ccc([Si](c2ccccc2)(c2cccs2)c2cccs2)cc1
inactive: [1] 103 % of control | [2] 95 % of control

O=C(N/N=C\c1cc(Cl)ccc1[N+](=O)[O-])c1ccco1
inactive: [6] 93 % of control

COc1ccc(C2CCCCC2O)cc1 (stereo unspecified)
inactive: [7] 94 % of control | [8] 97 % of control | [9] 99 % of control | [10] 91 % of control | [11] 99 % of control | [12] 93 % of control

CSC(=S)N(C)C
inactive: dose: 25.0 mg/kg/injection, schedule: Q01DX009 (ip), vehicle: Klucel (hydroxypropylcellulose) (HPC) 90 % of control | [15] 108 % of control | [7] 97 % of control and 102 % of control | [8] 100 % of control | [10] 93 % of control

CCC(=O)C(CC(C)[N+](C)(C)C)(c1ccccc1)c1ccccc1 (stereo unspecified)
inactive: dose: 100.0 mg/kg/injection, schedule: Q01DX001 (ip), vehicle: carboxymethylcellulose (CMC) 92 % of control

O=C(O)CSCc1cc(=O)[nH]c(=O)[nH]1
inactive: [13] 96 % of control | [14] 96 % of control | dose: 400.0 mg/kg/injection, schedule: Q04DX003 (ip), vehicle: saline 98 % of control

CCC(C)Nc1ccccc1 (stereo unspecified)
inactive: [15] 102 % of control and 104 % of control | dose: 50.0 mg/kg/injection, schedule: Q04DX003 (ip), vehicle: Klucel (hydroxypropylcellulose) (HPC) 101 % of control | [7] 102 % of control and 103 % of control | [8] 101 % of control | [9] 94 % of control and 87 % of control | [10] 97 % of control
